According to patent US6783949B1, “Processes for determining whether a test substance contains lipases or lipase inhibitors” (Aventis Pharma Deutschland GmbH, priority 1999, dated 2004):

Biological target: T1, HSL (Rattus norvegicus, UniProt P15304)
T1 construct: The partially purified HSL can be stored at −70° C. for 4 to 6 weeks; from tissue; host or cells: rat epididymal fat cells (male Wistar rats)
T1 sequence (P15304 1-768 isoform P15304-2): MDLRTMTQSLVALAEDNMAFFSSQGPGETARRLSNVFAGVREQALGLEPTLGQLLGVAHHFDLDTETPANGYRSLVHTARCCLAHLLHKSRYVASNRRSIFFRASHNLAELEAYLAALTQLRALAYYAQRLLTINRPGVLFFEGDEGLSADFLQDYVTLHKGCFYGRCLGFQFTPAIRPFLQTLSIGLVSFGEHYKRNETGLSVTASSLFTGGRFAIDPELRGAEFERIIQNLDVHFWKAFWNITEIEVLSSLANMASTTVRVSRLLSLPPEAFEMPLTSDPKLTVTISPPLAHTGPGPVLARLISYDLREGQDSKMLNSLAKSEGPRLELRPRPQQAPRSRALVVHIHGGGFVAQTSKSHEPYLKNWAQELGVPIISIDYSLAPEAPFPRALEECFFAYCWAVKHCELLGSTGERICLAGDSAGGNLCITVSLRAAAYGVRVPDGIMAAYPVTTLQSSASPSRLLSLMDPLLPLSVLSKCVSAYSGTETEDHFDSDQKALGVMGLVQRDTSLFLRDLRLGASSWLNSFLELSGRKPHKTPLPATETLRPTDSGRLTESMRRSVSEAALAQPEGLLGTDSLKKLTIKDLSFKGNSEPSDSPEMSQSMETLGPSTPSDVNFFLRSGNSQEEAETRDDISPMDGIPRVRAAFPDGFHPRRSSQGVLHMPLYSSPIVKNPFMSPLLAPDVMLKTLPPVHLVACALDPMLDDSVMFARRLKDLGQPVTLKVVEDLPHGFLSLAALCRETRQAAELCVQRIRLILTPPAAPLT
Assay: Indirect NAG assay (extinction increase at 481 nm)
Format: biochemical
Settings: for Absorption change, Decrease, 550 nm / Absorption change, Increase, 481 nm / Increase in the absorption at 481 nm: NAG 0.05 mg/ml
Experimental: A typical reaction is carried out at 30° C. for 60 min, for example in 1.5 ml Eppendorf vessels or 96-hole plates. […] 180 μl of the substrate solution (20 μg/ml of phosphatidylcholine, 10 μg/ml of phosphatidylinositol, 50 μg/ml of NAG in assay buffer) are added. After a preincubation for 15 min at 30° C., 20 μl of HSL in assay buffer are pipetted in and the extinction is immediately measured (see above) at 481 nm in a cuvette photometer (0.5 ml cuvette) or microtiter plate reader. After a certain incubation time, which is variable and depends on the chosen enzyme concentration and can be between 2 and 240 minutes, in this case incubation at 30° C. for 60 min, the extinction is measured again. The increase in the extinction in the yellow region, in this case at 481 nm, is a measure of the enzyme activity.
Isolated rat fat cells are obtained from epididymal fatty tissue from untreated male rats (Wistar, 220-250 g) by collagenase treatment according to published processes. The fat cells from 10 rats are washed three times by flotation with 50 ml each of homogenization buffer ([…], pH 7.4, 0.25 M sucrose, 1 mM ethylenediamine-N,N,N′,N′-tetraacetic acid (EDTA), 1 mM dithiothreitol (DTT), 10 μg/ml of leupeptin, 10 μg/ml of antipain, 20 μg/ml of pepstatin) and finally taken up in 10 ml of homogenization buffer. The fat cells are homogenized in a Teflon-in-glass homogenizer (Braun-Melsungen) by 10 strokes at 1500 rpm and 15° C. The homogenizate is centrifuged (Sorvall SM24 tubes, 5000 rpm, 10 min, 4° C.). The […] between the overlying fatty layer and the pellet is removed and the centrifugation is repeated. The […] resulting from this is centrifuged again (Sorvall SM24 tubes, 20,000 rpm, 45 min, 4° C.). […] After incubation for 60 min at 4° C. (shake at intervals of 15 min), the batch is centrifuged (Sorvall SM24 tubes, 3000 rpm, 10 min, 4° C.). The supernatant is brought to pH 5.2 by addition of glacial acetic acid and incubated at 4° C. for 30 min. […] The suspension is dialyzed overnight at 4° C. against 25 mM TRIS/HCl, pH 7.4, 50% glycerol, 1 mM DTT, and 10 μg/ml of leupeptin, pepstatin, and antipain and then applied to a hydroxylapatite column (0.1 g per 1 ml of suspension, equilibrated with 10 mM potassium phosphate, pH 7.0, 30% glycerol, 1 mM DTT). The column is washed with four volumes of equilibration buffer at a flow rate of 20 to 30 ml/h. The HSL is eluted with a volume of equilibration buffer which contains 0.5 M potassium phosphate, then dialyzed (see above) and concentrated 5 to 10 times by ultrafiltration (Amicon Diaflo PM 10 filter) at 4° C. The partially purified HSL can be stored at −70° C. for 4 to 6 weeks.
6 mg of phosphatidylcholine and 6 mg of phosphatidylinositol are dissolved in 1 ml of chloroform each. 10 mg of NAG are dissolved in 1 ml of chloroform. […] The chloroform (225 μl total volume) is completely removed by overblowing with a stream of N2. The dried substrate can be stored at 4° C. for up to three days. For the preparation of the phospholipid vesicles/micelles having intercalated NAG (on the test day), the dried substrate is taken up in 20 ml of assay buffer (25 mM TRIS/HCl, pH 7.4; 150 mM NaCl) and two ultrasonic treatments with an ultrasonic probe (Branson Sonifier type 11, standard microtip): 1st treatment setting 2, 2×1 min, in between in each case 1 min on ice; 2nd treatment setting 4, 2×1 min, in between in each case 1 min on ice. […] Before use as a substrate (within the next 2 h), the solution is additionally incubated on ice for 15 min.
The assay is carried out at 30° C. for 60 min in 1.5 ml Eppendorf vessels or 96-hole plates.

In the case of O=C(CCCCCCCCCCCNc1ccc([N+](=O)[O-])c2nonc12)OCC(O)CO (stereo not drawn) [Compound (3)], the Signal strength (20 μg of protein, 0.05 mg/ml of NAG) is reported as 0.6 to 0.7 OD, the “Absorption change, Decrease, 550 nm” value (HSL 1 μg, 60 min) is reported as 866 ± 94 arb. units and the “Absorption change, Increase, 481 nm” value (HSL 1 μg, 60 min) is reported as 156 ± 21 arb. units. For the same compound, the “Absorption change, Decrease, 550 nm” value (HSL 2 μg, 60 min) was 841 ± 78 arb. units, the “Absorption change, Increase, 481 nm” value (HSL 2 μg, 60 min) was 347 ± 40 arb. units and the “Increase in the absorption at 481 nm” value (HSL 5 μg, 1 min) was 12 ± 2 arb. units. For the same compound, the “Increase in the absorption at 481 nm” value (HSL 5 μg, 2 min) was 23 ± 4 arb. units, the “Increase in the absorption at 481 nm” value (HSL 5 μg, 5 min) was 45 ± 9 arb. units and the “Increase in the absorption at 481 nm” value (HSL 5 μg, 10 min) was 105 ± 18 arb. units. The “Increase in the absorption at 481 nm” value (HSL 5 μg, 15 min) was 155 ± 20 arb. units, the “Increase in the absorption at 481 nm” value (HSL 5 μg, 20 min) was 219 ± 31 arb. units and the “Increase in the absorption at 481 nm” value (HSL 5 μg, 30 min) was 295 ± 47 arb. units. The “Increase in the absorption at 481 nm” value (HSL 5 μg, 45 min) was 453 ± 52 arb. units, the “Absorption change, Decrease, 550 nm” value (HSL 5 μg, 60 min) was 779 ± 82 arb. units and the “Absorption change, Increase, 481 nm” value (HSL 5 μg, 60 min) was 791 ± 88 arb. units. For the same compound, the “Increase in the absorption at 481 nm” value (HSL 5 μg, 60 min) was 677 ± 70 arb. units, the “Increase in the absorption at 481 nm” value (HSL 5 μg, 75 min) was 831 ± 92 arb. units and the “Increase in the absorption at 481 nm” value (HSL 5 μg, 90 min) was 995 ± 82 arb. units. The “Increase in the absorption at 481 nm” value (HSL 5 μg, 120 min) was 1455 ± 102 arb. units, the “Increase in the absorption at 481 nm” value (HSL 5 μg, 180 min) was 1937 ± 121 arb. units and the “Absorption change, Decrease, 550 nm” value (HSL 7.5 μg, 60 min) was 759 ± 69 arb. units. For the same compound, the “Absorption change, Increase, 481 nm” value (HSL 7.5 μg, 60 min) was 1066 ± 120 arb. units, the “Increase in the absorption at 481 nm” value (HSL 10 μg, 1 min) was 19 ± 4 arb. units and the “Increase in the absorption at 481 nm” value (HSL 10 μg, 2 min) was 51 ± 9 arb. units. For the same compound, the “Increase in the absorption at 481 nm” value (HSL 10 μg, 5 min) was 102 ± 19 arb. units, the “Increase in the absorption at 481 nm” value (HSL 10 μg, 10 min) was 185 ± 26 arb. units and the “Increase in the absorption at 481 nm” value (HSL 10 μg, 15 min) was 288 ± 39 arb. units. For the same compound, the “Increase in the absorption at 481 nm” value (HSL 10 μg, 20 min) was 395 ± 36 arb. units, the “Increase in the absorption at 481 nm” value (HSL 10 μg, 30 min) was 517 ± 67 arb. units and the “Increase in the absorption at 481 nm” value (HSL 10 μg, 45 min) was 830 ± 57 arb. units. For the same compound, the “Absorption change, Decrease, 550 nm” value (HSL 10 μg, 60 min) was 650 ± 61 arb. units, the “Absorption change, Increase, 481 nm” value (HSL 10 μg, 60 min) was 1255 ± 141 arb. units and the “Increase in the absorption at 481 nm” value (HSL 10 μg, 60 min) was 1179 ± 110 arb. units. For the same compound, the “Increase in the absorption at 481 nm” value (HSL 10 μg, 75 min) was 1487 ± 104 arb. units, the “Increase in the absorption at 481 nm” value (HSL 10 μg, 90 min) was 1844 ± 130 arb. units and the “Increase in the absorption at 481 nm” value (HSL 10 μg, 120 min) was 2745 ± 195 arb. units. The “Increase in the absorption at 481 nm” value (HSL 10 μg, 180 min) was 3521 ± 254 arb. units, the “Absorption change, Decrease, 550 nm” value (HSL 15 μg, 60 min) was 540 ± 55 arb. units and the “Absorption change, Increase, 481 nm” value (HSL 15 μg, 60 min) was 2351 ± 205 arb. units. For the same compound, the “Increase in the absorption at 481 nm” value (HSL 20 μg, 1 min) was 5 ± 7 arb. units, the “Increase in the absorption at 481 nm” value (HSL 20 μg, 2 min) was 78 ± 12 arb. units and the “Increase in the absorption at 481 nm” value (HSL 20 μg, 5 min) was 193 ± 36 arb. units. The “Increase in the absorption at 481 nm” value (HSL 20 μg, 10 min) was 423 ± 62 arb. units, the “Increase in the absorption at 481 nm” value (HSL 20 μg, 15 min) was 617 ± 70 arb. units and the “Increase in the absorption at 481 nm” value (HSL 20 μg, 20 min) was 865 ± 93 arb. units. The “Increase in the absorption at 481 nm” value (HSL 20 μg, 30 min) was 1143 ± 216 arb. units, the “Increase in the absorption at 481 nm” value (HSL 20 μg, 45 min) was 1877 ± 206 arb. units and the “Absorption change, Decrease, 550 nm” value (HSL 20 μg, 60 min) was 287 ± 51 arb. units. The “Absorption change, Increase, 481 nm” value (HSL 20 μg, 60 min) was 2867 ± 199 arb. units, the “Increase in the absorption at 481 nm” value (HSL 20 μg, 60 min) was 2510 ± 295 arb. units and the “Increase in the absorption at 481 nm” value (HSL 20 μg, 75 min) was 3067 ± 310 arb. units. The “Increase in the absorption at 481 nm” value (HSL 20 μg, 90 min) was 3527 ± 188 arb. units, the “Increase in the absorption at 481 nm” value (HSL 20 μg, 120 min) was 4941 ± 410 arb. units and the “Increase in the absorption at 481 nm” value (HSL 20 μg, 180 min) was 5712 ± 399 arb. units. The “Absorption change, Decrease, 550 nm” value (HSL 25 μg, 60 min) was 198 ± 44 arb. units, the “Absorption change, Increase, 481 nm” value (HSL 25 μg, 60 min) was 3428 ± 270 arb. units and the “Absorption change, Decrease, 550 nm” value (HSL 30 μg, 60 min) was 115 ± 35 arb. units. The “Absorption change, Increase, 481 nm” value (HSL 30 μg, 60 min) was 3973 ± 244 arb. units, the “Increase in the absorption at 481 nm” value (HSL 40 μg, 1 min) was 91 ± 14 arb. units and the “Increase in the absorption at 481 nm” value (HSL 40 μg, 2 min) was 89 ± 32 arb. units. The “Increase in the absorption at 481 nm” value (HSL 40 μg, 5 min) was 395 ± 62 arb. units, the “Increase in the absorption at 481 nm” value (HSL 40 μg, 10 min) was 784 ± 88 arb. units and the “Increase in the absorption at 481 nm” value (HSL 40 μg, 15 min) was 1060 ± 144 arb. units.
